melting point [°C]	Structure (SMILES)
138.9 to 141.2	CCOC(=O)c1oc2ccc(/C(C)=C/C(=O)N(CC)CC)cc2c1NC(=O)c1cnoc1C [Example 91, Ethyl (E)-5-(2-diethylcarbamoyl-1-methylvinyl)-3-[(5-methylisoxazole-4-carbonyl)amino]benzofurane-2-carboxylate]
160.6 to 161.1	COc1cccc2c(NC(=O)/C=C/c3ccccc3)c(C(C)=O)oc12 [Example 182, (E)-N-(2-acetyl-7-methoxybenzofuran-3-yl)-3-phenylacrylamide]
159.5 to 162	CCOC(=O)c1oc2ccc(/C(C)=C/C(=O)N(CC)CC)cc2c1N [Example 15, Ethyl (E)-3-amino-5-(2-diethylcarbamoyl-1-methylvinyl)benzofurane-2-carboxylate]
182.5 to 184.7	COc1ccc(/C=C/C(=O)Nc2c(C(C)=O)oc3ccc(Br)cc23)cc1 [Example 178, (E)-N-(2-acetyl-5-bromobenzofuran-3-yl)-3-(4-methoxyphenyl)acrylamide]
165.5 to 166	Clc1ccc(-c2c(-c3csc(-c4ccccc4)n3)oc3c(Cl)cccc23)cc1 [Example 213, 4-[7-chloro-3-(4-chlorophenyl)benzofuran-2-yl]-2-phenylthiazole]
169.1 to 170.2	COc1cccc2c(NC(=O)CCCl)c(C(C)=O)oc12 [Example 204, N-(2-acetyl-7-methoxybenzofuran-3-yl)-3-chloropropionamide]
113.9 to 117.6	CCOC(=O)/C=C/C=C(\Cl)c1cc2cccc(OC)c2o1 [Example 62, Ethyl (2E,4Z)-5-chloro-5-(7-methoxybenzofuran-2-yl)penta-2,4-dienoate]
167.6 to 168.7	CC(=O)c1oc2ccc(/C(C)=C/C(=O)N3CCN(c4ccccc4)CC3)cc2c1NC(=O)/C(C#N)=C(/C)O [Example 95, N-{2-acetyl-5-[1-methyl-3-oxo-3-(4-phenylpiperazin-1-yl)-(E)-1-propenyl]benzofuran-3-yl}-2-cyano-3-hydroxy-(Z)-2-butenamide]
214.4 to 215.1	CC(=O)c1oc2ccc(Br)cc2c1NC(=O)CC#N [Example 193, N-(2-acetyl-5-bromobenzofuran-3-yl)-2-cyanoacetamide]
128 to 130	CC(=O)NC(C)c1cc2ccccc2o1 (stereo not drawn) [Example 190, N-(1-benzofuran-2-ylethyl)acetamide]
216.4 to 218.4	CCN(CC)C(=O)/C=C(\C)c1ccc2oc(C(=O)c3ccc(C#N)cc3)c(N)c2c1 [Example 22, (E)-3-[3-amino-2-(4-cyanobenzoyl)benzofuran-5-yl]-N,N-diethyl-2-butenamide]
186.2 to 188.3	COc1cccc2c(NC(=O)CCl)c(C(C)=O)oc12 [Example 205, N-(2-acetyl-7-methoxybenzofuran-3-yl)-2-chloroacetamide]
219.6 to 220.3	Cc1oncc1C(=O)Nc1c(C(=O)/C=C/c2ccccc2)oc2ccc(Br)cc12 [Example 173, (E)-5-methylisoxazole-4-carboxylic acid [5-bromo-2-(3-phenylacryloyl)benzofuran-3-yl]amide]
70.8 to 73.5	COc1ccc(CCNC(=O)/C=C(\C)c2cc3cccc(OC(c4ccccc4)c4ccccc4)c3o2)cc1OC [Example 47, (E)-3-(7-benzhydryloxybenzofuran-2-yl)-N-[2-(3,4-dimethoxyphenyl)ethyl]-2-butenamide]
195.5 to 197	COc1ccc(C(=O)Nc2c(Cl)oc3ccc(Br)cc23)cc1 [Example 200, N-(5-bromo-2-chlorobenzofuran-3-yl)-4-methoxybenzamide]
243.4 to 246.4	COc1ccc(NC(=O)/C(C#N)=C(/C)O)c2cc(C(C)=O)oc12 [Example 112, (Z)-N-(2-acetyl-7-methoxybenzofuran-4-yl)-2-cyano-3-hydroxy-2-butenamide]
220.4 to 223.5	CC(=O)c1cc2cc(/C(C)=C/C(=O)O)ccc2o1 [Example 134, (E)-3-(2-acetylbenzofuran-5-yl)-2-butenoic acid]
191.8 to 193.6	COc1ccc(NC(=O)/C=C(\C)c2cc3cccc(OC(c4ccccc4)c4ccccc4)c3o2)cc1 [Example 41, (E)-3-(7-benzhydryloxybenzofuran-2-yl)-N-(4-methoxyphenyl)-2-butenamide]
163.3 to 165.2	CCN(CC)C(=O)/C=C(\C)c1ccc(OC(c2ccccc2)c2ccccc2)c2oc(C(C)=O)cc12 [Example 4, (E)-3-(2-acetyl-7-benzhydryloxybenzofuran-4-yl)-N,N-diethyl-2-butenamide]
147.9 to 148.6	C/C(O)=C(\C#N)C(=O)NC(C)c1cc2cccc(OCCCC(=O)O)c2o1 (stereo not drawn) [Example 126, (Z)-4-{2-[1-(2-cyano-3-hydroxy-2-butenoylamino)ethyl]benzofuran-7-yloxy}butyric acid]
240.2 to 242	N#Cc1oc2ccc(Br)cc2c1NC(=O)/C=C/c1ccccc1 [Example 122, (E)-N-(5-bromo-2-cyanobenzofuran-3-yl)-3-phenylacrylamide]

melting point [°C]	Structure (SMILES)
99.5 to 101	CCOC(=O)/C=C(\C)c1ccc2oc(/C(Cl)=C/C=O)cc2c1 [Example 146, Ethyl 3-[2-(1-chloro-3-oxo-(Z)-propenyl)benzofuran-5-yl]-(E)-2-butenoate]
234.5 to 241.5	COc1cccc(NC(=O)c2oc3ccc(Br)cc3c2NC(=O)/C(C#N)=C(/C)O)c1 [Example 188, (Z)-5-bromo-3-(2-cyano-3-hydroxy-2-butenoylamino)benzofurane-2-carboxylic acid (3-methoxyphenyl)amide]
111.8 to 114.6	COC(=O)COc1cccc2cc(C(C)NC(=O)c3cnoc3C)oc12 (stereo not drawn) [Example 124, Methyl (2-{1-[(5-methylisoxazole-4-carbonyl)amino]ethyl}benzofuran-7-yloxy)acetate]
147.5 to 150.1	CCOC(=O)c1oc2ccccc2c1NC(=O)/C(C#N)=C(/C)O [Example 107, Ethyl (Z)-3-(2-cyano-3-hydroxy-2-butenoylamino)benzofurane-2-carboxylate]
123.8 to 126.5	COc1ccc(/C=C/C(=O)c2oc3ccc(Br)cc3c2NC(=O)CCNCc2ccccc2)cc1 [Example 203, (E)-3-benzylamino-N-{5-bromo-2-[3-(4-methoxyphenyl)acryloyl]benzofuran-3-yl}propionamide]
152.5 to 154.8	O=C(O)CCCOc1cccc2cc(C(Cl)=CC=CC(=O)N3CCOCC3)oc12 (stereo in doubt) [Example 147, (2E,4Z)-4-[2-(1-chloro-5-morpholin-4-yl-5-oxo-penta-1,3-dienyl)benzofuran-7-yloxy]butyric acid]
240.8 to 243.2	Cc1oncc1C(=O)Nc1c(C(=O)c2ccc(Cl)cc2)oc2ccc(Br)cc12 [Example 77, N-[5-bromo-2-(4-chlorobenzoyl)benzofuran-3-yl]-5-methylisoxazole-4-carboxamide]
236.3 to 238.9	Cc1oncc1C(=O)Nc1c(C(=O)c2ccc(C#N)cc2)oc2ccc(Br)cc12 [Example 73, N-[5-bromo-2-(4-cyanobenzoyl)benzofuran-3-yl]-5-methylisoxazole-4-carboxamide]
248	CN(C)/C=C/C(=O)c1oc2ccc(Br)cc2c1NC(=O)/C=C/c1ccccc1 [Example 176, (E,E)-N-[5-bromo-2-(3-dimethylaminoacryloyl)-benzofuran-3-yl]-3-phenylacrylamide]
220 to 221.3	COc1cccc2c(NC(=O)/C=C/c3ccccc3)c(Cl)oc12 [Example 181, (E)-N-(2-chloro-7-methoxybenzofuran-3-yl)-3-phenylacrylamide]
131 to 135	CCc1c(/C(C)=C/C(=O)NCCc2ccc(OC)c(OC)c2)oc2ccccc12 [Example 167, 3-(3-ethylbenzofuran-2-yl)-2-butenoic acid [2-(3,4-dimethoxyphenyl)ethyl]amide]
212 to 212.3	COc1cc(C(=O)Nc2c(C(C)=O)oc3ccc(Br)cc23)cc(OC)c1OC [Example 210, N-(2-acetyl-5-bromobenzofuran-3-yl)-3,4,5-trimethoxybenzamide]
132.1 to 136.5	CC(=O)c1cc2c(/C(C)=C/C(=O)N3CCN(Cc4ccccc4)CC3)ccc(OC(c3ccccc3)c3ccccc3)c2o1 [Example 12, (E)-3-(2-acetyl-7-benzhydryloxybenzofuran-4-yl)-1-(4-benzylpiperazin-1-yl)-2-buten-1-one]
105.8 to 106.5	COc1ccc2oc(-c3csc(C)n3)c(-c3ccc(Cl)cc3)c2c1 [Example 217, 4-[3-(4-chlorophenyl)-5-methoxybenzofuran-2-yl]-2-methylthiazole]
200 to 202	C/C=C/C(=O)Nc1c(Cl)oc2ccc(Br)cc12 [Example 184, (E)-2-butenoic acid (5-bromo-2-chlorobenzofuran-3-yl)amide]
206.1 to 208.1	CC(=O)c1oc2ccccc2c1NC(=O)/C(C#N)=C(/C)O [Example 66, (Z)-N-(2-acetylbenzofuran-3-yl)-2-cyano-3-hydroxy-2-butenamide]
170 to 172.8	CCOC(=O)c1oc2ccc(Br)cc2c1NC(=O)c1cnoc1C [Example 67, Ethyl 5-bromo-3-[(5-methylisoxazole-4-carbonyl)amino]benzofurane-2-carboxylate]
166 to 168.2	CCOC(=O)c1oc2ccccc2c1NC(=O)c1cnoc1C [Example 68, Ethyl 3-[(5-methylisoxazole-4-carbonyl)amino]benzofurane-2-carboxylate]
206.6 to 209.5	COc1cccc2c(NC(C)=O)c(C(C)=O)oc12 [Example 208, N-(2-acetyl-7-methoxybenzofuran-3-yl)acetamide]
168.9 to 170	COc1ccc(NC(=O)/C=C(\C)c2oc3c(Cl)cccc3c2-c2ccc(Cl)cc2)cc1 [Example 143, (E)-3-[7-chloro-3-(4-chlorophenyl)benzofuran-2-yl]-2-butenoic acid (4-methoxyphenyl)-amide]
202.6 to 204.4	C/C(=C\C(=O)N1CCOCC1)c1ccc2oc(/C(C)=C/C(=O)O)cc2c1 [Example 136, (E,E)-3-[5-(1-methyl-3-morpholin-4-yl-3-oxopropenyl)benzofuran-2-yl]-2-butenoic acid]

— patent US7638540B2, “Benzofuran compound and medicinal composition containing the same” (The New Industry Research Organization, priority 2003, dated 2009)
